Patent US6893858B2, “Human kcnq5 potassium channel, methods and compositions thereof” (Bristol-Myers Squibb Company, priority 2000, dated 2005)

Target: hKCNQ5 (Homo sapiens, UniProt Q9NR82)
Sequence (Q9NR82 36-932): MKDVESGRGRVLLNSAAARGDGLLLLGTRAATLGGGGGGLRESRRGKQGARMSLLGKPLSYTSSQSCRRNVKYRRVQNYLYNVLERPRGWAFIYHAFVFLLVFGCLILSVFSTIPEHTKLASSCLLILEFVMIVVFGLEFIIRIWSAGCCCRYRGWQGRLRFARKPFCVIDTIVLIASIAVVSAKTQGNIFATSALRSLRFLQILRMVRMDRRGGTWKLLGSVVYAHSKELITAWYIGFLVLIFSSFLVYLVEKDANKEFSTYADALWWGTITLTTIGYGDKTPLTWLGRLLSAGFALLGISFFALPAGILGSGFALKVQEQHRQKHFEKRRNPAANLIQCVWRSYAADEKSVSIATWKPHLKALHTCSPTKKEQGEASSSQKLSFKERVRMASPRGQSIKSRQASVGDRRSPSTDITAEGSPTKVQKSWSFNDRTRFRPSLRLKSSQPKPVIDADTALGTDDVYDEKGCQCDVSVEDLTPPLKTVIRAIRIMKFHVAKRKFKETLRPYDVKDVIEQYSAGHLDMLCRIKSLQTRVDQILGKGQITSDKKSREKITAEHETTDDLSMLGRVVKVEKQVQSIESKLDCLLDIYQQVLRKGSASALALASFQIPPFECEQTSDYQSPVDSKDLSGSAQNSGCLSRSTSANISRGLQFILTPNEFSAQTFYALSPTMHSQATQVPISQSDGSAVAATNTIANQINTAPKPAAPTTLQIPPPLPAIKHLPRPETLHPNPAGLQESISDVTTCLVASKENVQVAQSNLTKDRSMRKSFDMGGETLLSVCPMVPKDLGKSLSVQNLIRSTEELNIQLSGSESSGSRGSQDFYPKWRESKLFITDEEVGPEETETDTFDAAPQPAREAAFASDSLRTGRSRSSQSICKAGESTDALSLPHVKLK
Procedure: Frog (Xenopus laevis) oocytes were prepared and injected using standard techniques; each oocyte was injected with approximately 50 nl of hKCNQ5 cRNA. Following injection, oocytes were maintained at 17° C. in ND96 medium comprising (in mM): NaCl, 90; KCl, 1.0; CaCl2, 1.0; MgCl2, 1.0; HEPES, 5.0; pH 7.5. Horse serum (5%) and penicillin/streptomycin (5%) were added to the incubation medium. Recording commenced 2-6 days following mRNA injection. Prior to the start of an experiment, oocytes were placed in a recording chamber and incubated in Modified Barth's Solution (MBS) consisting of (in mM): NaCl, 88; NaHCO3, 2.4; KCl, 1.0; HEPES, 10; MgSO4, 0.82; Ca(NO3)2, 0.33; CaCl2, 0.41; pH 7.5. Oocytes were impaled with electrodes (1-2 MΩ) and standard 2-electrode voltage clamp techniques were employed to record whole-cell membrane currents. Voltage-clamp protocols typically consisted of a series of voltage steps 1-5 second duration, in +10 mV steps from a holding potential of −90 mV to a maximal potential of +40 mV; records were digitized at 5 kHz and stored on a computer using pClamp data acquisition and analysis software (Axon Instruments).

CC[N+](CC)(CC)CC [TEA, tetraethylammonium]
resistance of hKCNQ5 currents to the potassium channel blocker (hKCNQ5 cRNA expressed in Xenopus oocytes, concentrations as high as 30 mM, whole-cell outward currents): largely resistant
blockage of hKCNQ5 outward currents (FIG. 8 legend) (hKCNQ5 expressed in Xenopus oocytes, at high concentrations): resistant to blockage
